Test results published in patent publication US10709784B2, “Metal chelating compositions and methods for controlling the growth or activities of a living cell or organism” (CHELATION PARTNERS INCORPORATED, priority 2011, dated 2020).
≈ marks a conversion by molar mass, not a printed value. Like-named read-outs stand apart in the source and are kept apart here.

Assays:
Format in all cases: cell-based
[1] = tested on: Candida albicans ATCC 10231; test: Growth with chelating materials of different molecular weight, 84 hours; settings: 30° C., defined medium without added iron, FIG. 8
Experimental: Candida albicans ATCC 10231 was tested for its sensitivities to: the medical chelator deferiprone (#1 in the graph of FIG. 8) (a product of Apotex Pharmaceuticals); the precursor chemicals used for the preparation of soluble chelating compositions of the present invention, including 3-hydroxy-2-methyl-4-pyrone (#2 in the graph of FIG. 8), AHMP as from Example 1 (#3 in the graph of FIG. 8) and MAHMP as from Example 2 (#4 in the graph of FIG. 8) and also the soluble chelating composition as from Example 4 (#5 in the graph of FIG. 8). The yeast was grown in defined medium as for Example 18 with no additional added iron (i.e., the only but adequate Fe available for the yeast was contributed from being present along with the other added medium components). Growth of the yeast in the defined media with added test chelating materials was compared to control samples that had not received any of the chelating materials following 84 hours of incubation and growth at 30° C. […] These chelators being internalized by the yeast were incapable of restricting iron supply to the yeast cells. […] Thus, low molecular weight chelators such as deferiprone and similar compounds permitted growth while the soluble chelating composition that contained functional groups similar to deferiprone but was a molecular weight higher than 1500 Daltons restricted growth, eventhough the various compounds tested were each capable of binding iron through their pyridinone functionality.

[2] = tested on: Escherichia coli ATCC #25922; test: Antibiotic MIC in untreated versus iron-extracted RPMI
Source text: (§1) Test microorganisms included Pseudomonas aeruginosa strain PA01, Escherichia coli ATCC #25922 and Staphylococcus aureus ATCC #29213.

[3] = tested on: Pseudomonas aeruginosa strain PA01; test: as above
Source text: as §1

[4] = tested on: Staphylococcus aureus ATCC #29213; test: as above
[5] = tested on: Candida albicans ATCC 10231; test: Fluorocytosine MIC (80% growth inhibition) with soluble chelator
Experimental: Candida albicans ATCC 10231, yeast cells, as grown in defined medium with no additional added Fe as in example 18 and example 19, were tested in the same media for their sensitivities to 5-fluorocytosine, as a proto-typical example of the class of […] that are commonly used to control fungal and cancer cell growth in humans and with fluorocytosine plus the soluble chelating composition, as prepared in example 4.

[6] = tested on: antibiotic resistant strains of Staphylococcus aureus; test: NCCLS MIC antibiotic sensitivity with added chelator; settings: for MIC penicillin: Strain WBG8701
Experimental: Sensitive or antibiotic resistant strains of Staphylococcus aureus (S. aureus) were grown on blood agar plates overnight at 37° C. Four to six individual colonies of each strain were harvested into Mueller-Hinton broth (MHB) and incubated at 37° C. until they reached an optical density equal to or exceeding a 0.5 McFarland standard. The culture was diluted with MHB to equal 0.5 McFarland standard. Dilutions (10^−1) of these standards were used for inocula. Various stains of antibiotic resistant Staphylococcus aureus were used for these tests as shown in the results below. It should be appreciated that growing the bacterial strains on blood agar and then in MHB ensured the inoculum was not restricted for iron prior to the test but rather the bacterial cells were with ample endogenous iron supply.
A range of two-fold dilutions of a test antibiotic was prepared in MHB. […] Soluble and insoluble chelating compositions, as prepared in Example 6 or Example 5, or the free iron chelating agent deferiprone were added to the antibiotic containing tubes at known concentrations of iron binding capacity (referred to as iron binding equivalents) to allow direct comparison of the different compositions or free chelator. The final volume per tube was 500 μl. Bacterial inoculum, 25 μl of the 10^−1 dilutions of the appropriate S. aureus strain was added to each tube. The tubes were incubated at an angle on a reciprocating shaker at 37° C. overnight and results were scored as growth based on turbidity or no growth (lack of turbidity). The Minimum Inhibitory Concentration (MIC) for the antibiotic was determined from the growth results.
A series of tests was set up as in Example 15 with various antibiotic anti-cellular agents. The clinically isolated strains were obtained from the culture collection of Warren Grubb, Curtin University, Perth, Australia.
A series of antibiotic sensitivity tests was set up as in example 16 utilizing the soluble chelating compositions as prepared in Example 6. Separate test series with different clinically isolated Staphylococcus aureus strains, as obtained from the culture collection of Warren Grubb, Curtin University, Perth, Australia, and various antibiotics were employed but for each series a control test comprising addition of iron sufficient to supply two times the chelating capacity of the supplied chelating composition was also included.

[7] = tested on: Candida albicans ATCC 10231; test: Nystatin MIC (80% growth inhibition) with soluble chelator
Experimental: Candida albicans ATCC 10231, yeast cells, as grown in defined medium with no additional added Fe as in example 18 and example 19, were tested in the same media for their sensitivities to nystatin, an antifungal agent as proto-typical of the class of polyene antibiotics that are commonly used to control fungal growth and pathogenesis in humans and with nystatin plus the soluble chelating composition, as prepared in example 4. Nystatin as typical of the polyene class of antifungal agents causes membrane damage as part of its mechanism of anti-fungal activity.

[8] = tested on: Candida albicans ATCC 10231; test: Preservative agent MIC (80% inhibition) challenge test with soluble chelator
[9] = Escherichia coli, ATCC25922, Treated RPMI + 0.009 μM Fe, read-out: MIC
[10] = Escherichia coli, ATCC25922, Untreated RPMI 0.11 μM Fe, read-out: MIC
[11] = Pseudomonas aeruginosa, PA01, Treated RPMI + 0.09 μM Fe, read-out: MIC
[12] = Pseudomonas aeruginosa, PA01, Untreated RPMI 0.11 μM Fe, read-out: MIC
[13] = Staphylococcus aureus, ATCC29213, Treated RPMI + 0.004 μM Fe, read-out: MIC
[14] = Staphylococcus aureus, ATCC29213, Untreated RPMI 0.11 μM Fe, read-out: MIC
[15] = strain WBG525, No Chelator Added (control)
[16] = strain WBG525, plus Soluble Chelating Composition (Example 6) 1.1 mM Fe binding equivalents, * slight growth <5% of control
[17] = strain WBG525, plus Soluble Chelating Composition (Example 6) 2.2 mM Fe binding equivalents, * slight growth <5% of control
[18] = strain WBG4340, No Chelator Added (control)

Molecule: Cc1occc(=O)c1O [3-hydroxy-2-methyl-4-pyrone]
- growth of the yeast compared to control [1]: did not substantially restrict growth

Molecule: CC1(C)S[C@@H]2[C@H](NC(=O)[C@H](N)c3ccccc3)C(=O)N2[C@H]1C(=O)O [Ampicillin]
- MIC [2, 9]: 4 µg/mL
- MIC [2, 10]: 4 µg/mL (≈ 11.4 µM)
- MIC [3, 11]: > 512 µg/mL
- MIC [3, 12]: > 512 µg/mL
- MIC [4, 13]: 0.25 µg/mL
- MIC [4, 14]: 1 µg/mL (≈ 2.86 µM)

Molecule: O=C(O)c1cn(C2CC2)c2cc(N3CCNCC3)c(F)cc2c1=O [Ciprofloxacin]
- MIC [2, 9]: 0.008 µg/mL
- MIC [2, 10]: 0.0078 µg/mL (≈ 0.0235 µM)
- MIC [3, 11]: 1 µg/mL
- MIC [3, 12]: 4 µg/mL (≈ 12.1 µM)
- MIC [4, 13]: 0.25 µg/mL
- MIC [4, 14]: 0.5 µg/mL (≈ 1.51 µM)

Molecule: CC[C@H]1OC(=O)[C@H](C)[C@@H](O[C@H]2C[C@@](C)(OC)[C@@H](O)[C@H](C)O2)[C@H](C)[C@@H](O[C@@H]2O[C@H](C)C[C@H](N(C)C)[C@H]2O)[C@](C)(OC)C[C@@H](C)C(=O)[C@H](C)[C@@H](O)[C@]1(C)O [Clarithromycin]
- MIC [2, 9]: 16 µg/mL
- MIC [2, 10]: > 512 µg/mL
- MIC [3, 11]: > 512 µg/mL
- MIC [3, 12]: > 512 µg/mL
- MIC [4, 14]: 1 µg/mL (≈ 1.34 µM)

Molecule: Nc1nc(=O)[nH]cc1F [Fluorocytosine, 5-fluorocytosine]
- MIC ([5]; ATCC10231, 96 h, Fluorocytosine alone, 4 d): 0.025 µg/mL (≈ 0.194 µM)
- MIC ([5]; ATCC10231, 96 h, plus 25 μg/ml soluble chelator (example 4), 4 d): < 0.003 µg/mL
- MIC ([5]; ATCC10231, 240 h, Fluorocytosine alone, 10 d): 0.05 µg/mL (≈ 0.387 µM)
- MIC ([5]; ATCC10231, 240 h, plus 25 μg/ml soluble chelator (example 4), 10 d): 0.012 µg/mL
- MIC ([5]; ATCC10231, 504 h, Fluorocytosine alone, 21 d): 0.05 µg/mL (≈ 0.387 µM)
- MIC ([5]; ATCC10231, 504 h, plus 25 μg/ml soluble chelator (example 4), 21 d): 0.012 µg/mL

Molecule: CC(=O)O[C@H]1C[C@@]2(C)[C@@H](C[C@@H](O)[C@H]3[C@@]4(C)CC[C@@H](O)[C@@H](C)[C@@H]4CC[C@@]32C)/C1=C(\CCC=C(C)C)C(=O)O [Fusidic acid]
- MIC [2, 9]: > 512 µg/mL
- MIC [2, 10]: > 512 µg/mL
- MIC [3, 11]: > 512 µg/mL
- MIC [3, 12]: > 512 µg/mL
- MIC [4, 13]: 0.0625 µg/mL
- MIC [4, 14]: 0.25 µg/mL (≈ 0.484 µM)

Molecule: NC[C@H]1O[C@H](O[C@H]2[C@H](O)[C@@H](O[C@H]3O[C@H](CO)[C@@H](O)[C@H](N)[C@H]3O)[C@H](N)C[C@@H]2N)[C@H](O)[C@@H](O)[C@@H]1O [Kanamycin]
- MIC (100% inhibition) antibiotic [6, 15]: 320 µg/mL (≈ 660 µM)
- MIC (100% inhibition) antibiotic [6, 16]: 20 µg/mL
- MIC (100% inhibition) antibiotic [6, 17]: 20 µg/mL

Molecule: C/C(=C\C(=O)OCCCCCCCCC(=O)O)C[C@@H]1OC[C@H](C[C@@H]2O[C@H]2[C@@H](C)[C@H](C)O)[C@@H](O)[C@H]1O [Mupirocin]
- MIC [2, 9]: 64 µg/mL
- MIC [2, 10]: 128 µg/mL (≈ 256 µM)
- MIC [3, 11]: > 512 µg/mL
- MIC [3, 12]: > 512 µg/mL
- MIC [4, 13]: 0.0156 µg/mL
- MIC [4, 14]: 0.0625 µg/mL (≈ 0.125 µM)

Molecule: C[C@@H]1[C@H](O)[C@@H](C)/C=C/C=C/CC/C=C/C=C/C=C/C=C/C(O[C@H]2O[C@H](C)[C@@H](O)[C@H](N)[C@@H]2O)CC2O[C@](O)(CC(O)C(O)CCC(O)CC(O)CC(O)CC(=O)O[C@H]1C)CC(O)C2C(=O)O (stereo partly shown) [Nystatin]
- Nystatin MIC ([7]; Nystatin alone, 4 d): 0.23 µg/mL
- Nystatin MIC ([7]; Nystatin alone, 10 d): 3.8 µg/mL
- Nystatin MIC ([7]; Nystatin alone, 21 d): 7.5 µg/mL
- Nystatin MIC ([7]; plus 25 μg/ml soluble chelator (example 4), 4 d): <0.12 µg/mL
- Nystatin MIC ([7]; plus 25 μg/ml soluble chelator (example 4), 10 d): 0.12 µg/mL
- Nystatin MIC ([7]; plus 25 μg/ml soluble chelator (example 4), 21 d): 0.47 µg/mL

Molecule: COC(=O)c1ccc(O)cc1 [Paraben, methyl paraben]
- MIC ([8]; ATCC10231, 48 h, read-out: Sorbate or Paraben MIC, preservative alone, 2 days): 500 µg/mL (≈ 3290 µM)
- MIC ([8]; ATCC10231, 240 h, read-out: Sorbate or Paraben MIC, preservative alone, 10 days): 1000 µg/mL (≈ 6570 µM)

Molecule: [H]/N=C(/N)N[C@H]1[C@H](O)[C@@H](O)[C@H](O[C@@H]2O[C@@H](C)[C@](O)(C=O)[C@H]2O[C@@H]2O[C@@H](CO)[C@H](O)[C@@H](O)[C@@H]2NC)[C@@H](N/C(N)=N\[H])[C@@H]1O [Streptomycin]
- MIC ([6]; Staphylococcus aureus, strain WBG525, no chelator added (control), read-out: MIC Streptomycin): > 640 µg/mL
- MIC (100% inhibition) antibiotic [6, 15]: >640 µg/mL
- MIC (100% inhibition) antibiotic [6, 16]: 640* μg/ml
- MIC (100% inhibition) antibiotic [6, 17]: 160* μg/ml

Molecule: CN(C)[C@@H]1C(O)=C(C(N)=O)C(=O)[C@@]2(O)C(O)=C3C(=O)c4c(O)cccc4[C@@](C)(O)[C@H]3C[C@@H]12 [Tetracycline]
- MIC (100% inhibition) antibiotic [6, 18]: 40 µg/mL (≈ 90 µM)

Molecule: Gentamcin
- MIC (100% inhibition) antibiotic ([6]; strain WBG1320, No Chelator Added (control), * slight growth <5% of control): 320* μg/ml
- MIC (100% inhibition) antibiotic ([6]; strain WBG1320, plus Soluble Chelating Composition (Example 6) 1.1 mM, * slight growth <5% of control): 40* μg/ml
- MIC (100% inhibition) antibiotic ([6]; strain WBG1320, plus Soluble Chelating Composition (Example 6) 2.2 mM, * slight growth <5% of control): 20* μg/ml

Molecule: Neomycin
- MIC (100% inhibition) antibiotic [6, 18]: 1280 µg/mL
- MIC (100% inhibition) antibiotic ([6]; strain WBG4340, plus Soluble Chelating Composition (Example 6) 1.1 mM): 160 µg/mL
- MIC (100% inhibition) antibiotic ([6]; strain WBG4340, plus Soluble Chelating Composition (Example 6) 2.2 mM): 80 µg/mL
- MIC ([2]; Treated RPMI + 0.009 μM Fe): 2 µg/mL
- MIC ([2]; Untreated RPMI 0.11 μM Fe): 2 µg/mL
- MIC ([3]; Treated RPMI + 0.09 μM Fe): 16 µg/mL
- MIC ([3]; Untreated RPMI 0.11 μM Fe): 32 µg/mL
- MIC ([4]; Treated RPMI + 0.004 μM Fe): 1 µg/mL
- MIC ([4]; Untreated RPMI 0.11 μM Fe): 1 µg/mL

Molecule: penicillin
- MIC penicillin ([6]; no chelator): 640 µg/mL
- MIC penicillin ([6]; plus 4.4 mM Fe binding equivalents soluble chelating composition (example 6)): 320 µg/mL
- MIC penicillin ([6]; plus iron-loaded chelating composition): did not lower the MIC
